# Measured values: patent publication US20250277272A1, “CANCER TREATMENTS AND METHODS OF SELECTING SAME” (The General Hospital Corporation, priority 2016, published 2025)
# What was measured:
# [1] = test system: M14 or SKMEL28 melanoma cells; assay: MTS assay with the ERK inhibitor, cells with inducible Stag2 knockdown; assay type: cell-based; settings: doxycycline-induced shStag2 #60; 3 days
# Experimental: M14 (FIG. 12A) or SKMEL28 (FIG. 12B) melanoma cells expressing pTRIPZ-shStag2 #60 were cultured in the presence or absence of doxycycline (Doxy) for 5 days to induce the expression of Stag2 shRNAs and treated with various concentrations of ERK inhibitor SCH772984 for 3 days, before MTS assays were performed.
# (§1) Cell culture: All melanoma cell lines used in this study contain BRAF^Val600Glu mutations, except as otherwise indicated. A375 and SKMEL28 cells were purchased from the American Type Culture Collection (ATCC). LOX-IVMI cells were obtained from the Division of Cancer Treatment and Diagnosis. National Cancer Institute. (NCI-DCTD) repository. WM902, WM902-BR, WM983, WM983-BR and MEL1617 cell lines were obtained from Dr. Meenhard Herlyn (Wistar Institute). Immortalized Braf-null mouse embryonic fibroblasts (MEFs) were a gift from Dr. Catrin Pritchard (University of Leicester)^38. 501MEL and SKMEL103 cells, harboring NRAS mutations, were gifts from Dr. Lynda Chin (MD Anderson Cancer Center) and Dr. Jonathon Zippin (Weill Cornell Medical College), respectively. These cell lines were not authenticated by the inventors. WM902, WM983, M14, MEL1617, SKMEL28, A375, LOX-IVMI, 501MEL and SKMEL103 cells were cultured in RPMI containing 10% FBS (FBS) and penicillin-streptomycin-glutamine (PSG). […]
# WM902BR cells = assay: MTS assay with the ERK inhibitor, WM902 (Stag2 WT) and WM902BR (Stag2 mutant); assay type: cell-based; settings: 3 days, two independent experiments
# Experimental: Both WM902 (Stag2 WT) and WM902BR (Stag2 mutant) were treated with various concentrations of ERK inhibitor SCH772984 for 3 days, before MTS assays were performed. Data were from two independent experiments: Experiment A (FIG. 11A) and Experiment B (FIG. 11B).
# as §1, with “(PSG). HEK293 and MEF cells were maintained in Dulbecco's modified Eagle's medium (DMEM) containing 10% FBS and PSG.” for “(PSG).”
# A375 cells = assay: MTS cell viability assay, A375 cells with STAG2 knockdown; assay type: cell-based; settings: A375 cells expressing STAG2-specific shRNA vs scrambled control shRNA; 3 d
# Experimental: FIGS. 2A-2H. […] FIG. 2A, Viability of A375 cells expressing cither a scrambled control shRNA or a STAG2-specific shRNA (shSTAG2 #23), after treatment with varying concentrations of dabrafenib (Dab) for 3 d. Experiment was performed three times. Data are mean±s.e.m. shSTAG2 #23 sequence: […] TTTG; SEQ ID NO. […] 2) FIG. 2B, Representative Western blot analysis of A375 cells that were treated with dabrafenib for 2 hr. Experiment was performed three times. […] Experiment was performed three times. FIG. 2D, Representative Western blot analysis of SKMEL30 cells that were treated with vemurafenib for 2 hr. […] Experiment was performed 3 times. Data are mean±s.e.m. […] Experiment was performed three times. […] Experiment was performed three times. […] Experiment was performed three times.
# Experiment was performed 3 times. Data are mean±s.e.m. […] Experiment was performed three times. […] Experiment was performed three times. […] Experiment was performed 3 times. Data are mean±s.e.m. […] Experiment was performed three times. […] Experiment was performed three times. […] Experiment was performed 3 times. […] Experiment was performed 3 times. Data are mean±s.e.m. […] Experiment was performed 3 times.
# ERK phosphorylation = assay: Western blot of p-ERK in A375 cells with STAG2 and/or STAG3 knockdown; assay type: cell-based; settings: 2 hr treatment
# Experimental: (§2) FIGS. 2A-2H. Knock-down of STAG2 or STAG3 decreases BRAFi sensitivity in BRAF-mutant melanoma cells. FIG. 2A, Viability of A375 cells expressing cither a scrambled control shRNA or a STAG2-specific shRNA (shSTAG2 #23), after treatment with varying concentrations of dabrafenib (Dab) for 3 d. Experiment was performed three times. Data are mean±s.e.m. shSTAG2 #23 sequence: […] TTTG; SEQ ID NO. 1) scramble control shRNA sequence: ([…]: SEQ ID NO. 2) FIG. 2B, Representative Western blot analysis of A375 cells that were treated with dabrafenib for 2 hr. Experiment was performed three times. FIG. 2C, Viability of SKMEL28 cells expressing an inducible STAG2-specific shRNA (shStag2 #60; […]: SEQ ID NO. 3) and cultured in the presence (+Dox) or absence (−Dox) of doxycycline after treatment with varying concentrations of vemurafenib (VEM) for 3 d. Experiment was performed three times. FIG. 2D, Representative Western blot analysis of SKMEL30 cells that were treated with vemurafenib for 2 hr. FIG. 2E, Viability of A375 cells expressing either a scrambled control shRNA or a STAG3-specific shRNA (shSTAG3 #96), after treatment with varying concentrations of dabrafenib for 3 days. Experiment was performed 3 times. Data are mean±s.e.m. […]
# [2] = test system: SKMEL28, A375 and M14 cells; assay: Sensitivity of cells with inducible STAG2 shRNA to BRAFi (viability, Western blot); assay type: cell-based; settings: inducible expression of an independent shRNA targeting STAG2
# Experimental: as §2
# [3] = test system: BRAF-mutant melanoma cells; assay: BRAFi sensitivity after STAG3 knockdown (cell viability and ERK inhibition); assay type: cell-based; settings: knockdown of STAG3
# melanoma = assay: Melanoma patient treated with BRAFi, relapse; assay type: in vivo, human; settings: one melanoma patient who relapsed
# Source text: This mutation in STAG2 gene (c.577G>A, resulting in Asp193Asn) was subsequently confirmed by Sanger sequencing. Although the pretreatment sample contains trace amounts of the mutated allele, it is greatly enriched in the post-relapse sample (FIG. 1A). STAG2 (also known as SA2) encodes a core subunit in the cohesin complex that regulates cohesion and segregation of sister chromatids^11,12. […] Stag2 has two other paralogs in mammals, Stag1 and Stag3. […] Sanger sequencing was subsequently performed for all coding exons of STAG2 and STAG3 genes in these cell line pairs and identified a STAG2 nonsense mutation (c.3247A>T, resulting in a change of Lys1083 to a stop codon (Lys1083*)) in WM902BR cells, which was not present in the parental WM902 cells (FIG. 6A). No mutations in STAG3 were identified in this cell line panel. […] STAG3 mutations were detected in post-relapse, but not pre-treatment, samples from an additional six patients from this study (Table 2).
# Patient samples and immunohistochemistry (IHC): Patients with metastatic melanoma containing BRAF^Val600 mutations (confirmed by genotyping) were enrolled in clinical trials testing treatment with a BRAF inhibitor alone or in combination with a MEK inhibitor. […] Formalin-fixed tissue was analyzed to confirm that viable tumor was present, using hematoxylin and eosin (H&E) staining. […]
smiles,measurement,setting,value
O=C(Nc1ccc2[nH]nc(-c3ccncc3)c2c1)[C@@H]1CCN(CC(=O)N2CCN(c3ccc(-c4ncccn4)cc3)CC2)C1 [SCH772984],effect of Stag2 knockdown on sensitivities in MTS assay,[1],does not affect their sensitivities
same,sensitivity of cells in MTS assay,WM902BR cells,sensitive to inhibition
CC(C)(C)c1nc(-c2cccc(NS(=O)(=O)c3c(F)cccc3F)c2F)c(-c2ccnc(N)n2)s1 [dabrafenib],sensitivity in cell viability assay (MTS),A375 cells,lower sensitivity
same,ability to inhibit ERK phosphorylation,ERK phosphorylation,reduction in the ability
same,sensitivity of cells to BRAFi,[2],decreased the sensitivity
same,sensitivity with regard to cell viability and ERK inhibition,[3],decreased sensitivity
CCCS(=O)(=O)Nc1ccc(F)c(C(=O)c2c[nH]c3ncc(-c4ccc(Cl)cc4)cc23)c1F [vemurafenib],time-to-disease-progression,melanoma,5 months
